Measurements as given in PubChem BioAssay (NCI).
“And” between values parts separate entries of the source, which are not always exact repeats. Identical values can stand only once.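 Method: 48-hour compound exposure of cells in 96-well plates, five concentrations, linear interpolation of endpoints. GI50 is the concentration that inhibits growth by half. Definition used: TGI = concentration required for complete inhibition of growth.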

What was measured:
Test in all cases: NCI-60 cell line screen, 48 h
ACHN renal = tested on: ACHN renal
CAKI-1 renal = tested on: CAKI-1 renal
HT29 colon = tested on: HT29 colon
LOX IMVI melanoma = tested on: LOX IMVI melanoma
MALME-3M melanoma = tested on: MALME-3M melanoma
NCI-H23 lung = tested on: NCI-H23 lung
OVCAR-4 ovarian = tested on: OVCAR-4 ovarian
OVCAR-8 ovarian = tested on: OVCAR-8 ovarian
PC-3 prostate = tested on: PC-3 prostate
SF-295 CNS = tested on: SF-295 CNS

| SMILES | GI50 (ACHN renal) | TGI (ACHN renal) | GI50 (CAKI-1 renal) | TGI (CAKI-1 renal) | GI50 (HT29 colon) | TGI (HT29 colon) | GI50 (LOX IMVI melanoma) | TGI (LOX IMVI melanoma) | GI50 (MALME-3M melanoma) | TGI (MALME-3M melanoma) | GI50 (NCI-H23 lung) | TGI (NCI-H23 lung) | GI50 (OVCAR-4 ovarian) | TGI (OVCAR-4 ovarian) | GI50 (OVCAR-8 ovarian) | TGI (OVCAR-8 ovarian) | GI50 (PC-3 prostate) | TGI (PC-3 prostate) | GI50 (SF-295 CNS) | TGI (SF-295 CNS) |
| --- | --- | --- | --- | --- | --- | --- | --- | --- | --- | --- | --- | --- | --- | --- | --- | --- | --- | --- | --- | --- |
| CC(C)(C)[Si](C)(C)OC1[C@@H](CNC(N)=O)O[C@@H](n2cnc3c(NC(=O)Nc4ccccc4)ncnc32)[C@H]1O[Si](C)(C)C(C)(C)C (some centres undefined) | 2.42 µM | 8.62 µM | 1.76 µM | 7.12 µM | 1.07 µM | 2.22 µM | 0.856 µM | 1.56 µM | 5.19 µM | 12.5 µM | 1.9 µM | 7.83 µM | 2.48 µM | 10.1 µM | 1.77 µM | 7.32 µM | 0.814 µM | 1.99 µM | 2.04 µM | 7.9 µM |
| COc1cc([C@@H]2c3cc4c(cc3[C@H](OC(C)=O)[C@H]3COC(=O)[C@@H]23)OCO4)cc(OC)c1OC | 0.766 µM | > 100 µM | 0.537 µM | > 100 µM | 0.343 µM | – | 0.551 µM | > 100 µM | – | > 100 µM | 0.333 µM | – | 2.11 µM | > 100 µM | 0.469 µM | > 100 µM | 0.318 µM | > 100 µM | 0.296 µM | > 100 µM |
| C=C1C(=O)O[C@H]2[C@H]1CC/C(COC(=O)N[C@H]1C[C@H](O[C@H]3C[C@](O)(C(=O)CO)Cc4c(O)c5c(c(O)c43)C(=O)c3c(OC)cccc3C5=O)O[C@@H](C)[C@H]1O)=C\CC[C@@]1(C)O[C@@H]21 | 41.3 µM | > 50 µM | 7.76 µM | > 50 µM | 4.48 µM | 22 µM | 2.17 µM | 8.25 µM | 0.879 µM | 1.9 µM | 8.36 µM | 18.6 µM | 3.47 µM | 12.3 µM | 6.99 µM | 18 µM | 7.8 µM | 30.8 µM | 45.3 µM | > 50 µM |
| CC(NC(=O)Cc1ccc(C(F)(F)P(=O)(OCc2ccc([N+](=O)[O-])o2)N(C)CCCCCl)cc1)c1ccc(OCC2CCCCC2)c(C(N)=O)c1 (centres undefined) | 8.77 µM | 39.3 µM | 15.8 µM | 48.4 µM | 5.8 µM | 21.2 µM | 2.06 µM | 5.87 µM | 4.62 µM | 16.3 µM | 4.11 µM | 15.3 µM | 3.33 µM | 12 µM | 12.1 µM | 41.9 µM | 6.91 µM | > 34.8 µM | 4.52 µM | 12.3 µM |
| CCN1[C@@H](C(=O)NC23CCC(C(=O)O)(CC2)CC3)[C@H](c2cccc(Cl)c2F)[C@]2(C(=O)Nc3cc(Cl)ccc32)C12CCCCC2 | 0.0878 µM | 3.77 µM | < 0.0149 µM | 0.817 µM | 3.06 µM | 14.8 µM | 0.259 µM | 4.88 µM | 0.0655 µM | 1.18 µM | 3.53 µM | 17.4 µM | 3.37 µM | 15.5 µM | 3.84 µM | 18.7 µM | 2.42 µM | 9.21 µM | 2.21 µM | 7.29 µM |
| CCCC1(CN2c3ccccc3Sc3ccc(Cl)cc32)CCN(CC)C1 (centres undefined) | 1.76 µM | 3.31 µM | 1.7 µM | 3.2 µM | 1.88 µM | 3.75 µM | 1.67 µM | 3.37 µM | 1.88 µM | 3.63 µM | 1.75 µM | 3.55 µM | 1.75 µM | 3.39 µM | 1.78 µM | 3.35 µM | 1.68 µM | 3.38 µM | 1.7 µM | 3.3 µM |
| CCCCCCNCCCNc1c2cc(OC)ccc2nc2cccc([N+](=O)[O-])c12 | 0.159 µM | 1.54 µM and 0.535 µM | 0.24 µM | 0.797 µM and 0.748 µM | 0.0544 µM | 0.407 µM and 0.353 µM | 0.272 µM | 0.542 µM and 0.974 µM | 0.179 µM | 0.199 µM and 0.422 µM | 0.165 µM | 0.296 µM and 0.351 µM | 0.0885 µM | 0.346 µM and 0.238 µM | 0.236 µM and 0.105 µM | 2.45 µM and 0.644 µM | – | 0.56 µM and 1.02 µM | 0.163 µM | 0.413 µM and 1.03 µM |
| COc1cccc(CNc2ncnc3c2ncn3C2OC(CO)C(O)C2O)c1O (centres undefined) | 0.128 µM | – | 0.0667 µM | – | 0.9 µM | > 100 µM | 0.0616 µM | > 100 µM | 0.259 µM | 4.38 µM | 0.282 µM | > 100 µM | 0.105 µM | > 100 µM | 0.0679 µM | > 43 µM | 0.179 µM | > 100 µM | 0.165 µM | 0.66 µM |
| c1ccc(-c2nc3n(c2-c2ccc4c(c2)OCO4)CCC3)nc1 | 0.993 µM | > 25 µM | 0.62 µM | > 25 µM | 7.79 µM | > 25 µM | 7.46 µM | > 25 µM | 8.19 µM | > 23.4 µM | 9.59 µM | > 25 µM | 2.41 µM | 15.8 µM | 6.34 µM | > 25 µM | 6.75 µM | > 25 µM | 4.8 µM | 24.5 µM |
